Experimental data taken from patent US8933018B2, “Boron containing polybasic bacterial efflux pump inhibitors and therapeutic uses thereof” (priority 2011, dated 2015).

system: P. aeruginosa, PAM1723, overexpressing the MexAB-OprM efflux pump; format: cell-based, Pseudomonas aeruginosa; settings: lowest EPI concentration giving antibacterial activity with levofloxacin at 1/8 of its MIC, MHB, 20 h at 35° C.
Summary of the method: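 Checkerboard microdilution in Mueller Hinton Broth, with EPI concentrations varied along one axis. The inoculum was 5 times 10^5 CFU/ml from early-log culture. Plates were incubated 20 h at 35° C, and growth was read at 650 nm and by visual inspection.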

SMILES | MPC8 (Minimum Potentiating Concentration)
NCCN(CCN)C(=O)CC[C@H](N)C(=O)N[C@H](CCc1ccc(C(F)(F)F)cc1)C(=O)Nc1cc(B(O)O)ccc1F [Compound 25, 3-((R)-2-((S)-2-amino-5-(bis(2-aminoethyl)amino)-5-oxopentanamido)-4-(4-(trifluoromethyl)phenyl)butanamido)-4-fluorophenylboronic acid] | B (B = MPC8 of 2.5 μg/ml to less than 10 μg/mL.)
NCCN(CCN)C(=O)CC[C@H](N)C(=O)N[C@H](CCc1ccc(C(F)(F)F)cc1)C(=O)Nc1cc(F)c(F)c(B(O)O)c1 [Compound 34, 5-((R)-2-((S)-2-amino-5-(bis(2-aminoethyl)amino)-5-oxopentanamido)-4-(4-(trifluoromethyl)phenyl)butanamido)-2,3-difluorophenylboronic acid] | C (C = MPC8 of 10 μg/mL or greater.)
NCC(O)(CN)CNC(=O)CC[C@H](N)C(=O)N[C@H](CCc1ccc(C(F)(F)F)cc1)C(=O)Nc1cc(B(O)O)cc(C(F)(F)F)c1 [Compound 21, 3-((R)-2-((S)-2-amino-5-(3-amino-2-(aminomethyl)-2-hydroxypropylamino)-5-oxopentanamido)-4-(4-(trifluoromethyl)phenyl)butanamido)-5-(trifluoromethyl)phenylboronic acid] | B (B = MPC8 of 2.5 μg/ml to less than 10 μg/mL.)
NCCN(CCN)C(=O)CC[C@H](N)C(=O)N[C@H](CCc1ccc(C(F)(F)F)cc1)C(=O)Nc1cc2c(c(C(F)(F)F)c1)COB2O [Compound 31, (S)-2-amino-N5,N5-bis(2-aminoethyl)-N1-((R)-1-(1-hydroxy-4-(trifluoromethyl)-1,3-dihydrobenzo[c][1,2]oxaborol-6-ylamino)-1-oxo-4-(4-(trifluoromethyl)phenyl)butan-2-yl)pentanediamide] | B (B = MPC8 of 2.5 μg/ml to less than 10 μg/mL.)
CC1(C)OB(O)c2ccc(NC(=O)[C@@H](Cc3ccc(C(F)(F)F)cc3)NC(=O)[C@@H](N)CCC(=O)N(CCN)CCN)cc21 [Compound 84, (S)-2-amino-N^5,N^5-bis(2-aminoethyl)-N^1-((R)-1-(1-hydroxy-3,3-dimethyl-1,3-dihydrobenzo[c][1,2]oxaborol-5-ylamino)-1-oxo-3-(4-(trifluoromethyl)phenyl)propan-2-yl)pentanediamide] | B (B = MPC8 of 2.5 μg/ml to less than 10 μg/mL.)
CC1(C)OB(O)c2cc(NC(=O)[C@@H](CCc3ccc(C(F)(F)F)cc3)NC(=O)[C@@H](N)CCC(=O)N[C@@H]3C[C@H](N)C[C@H](N)C3)ccc21 [Compound 38, (S)-2-amino-N5-((1s,3R,5S)-3,5-diaminocyclohexyl)-N1-((R)-1-(1-hydroxy-3,3-dimethyl-1,3-dihydrobenzo[c][1,2]oxaborol-6-ylamino)-1-oxo-4-(4-(trifluoromethyl)phenyl)butan-2-yl)pentanediamide] | A (A = MPC8 of less than 2.5 μg/mL.)
CC1(C)OB(O)c2c(NC(=O)[C@@H](Cc3ccc(C(F)(F)F)cc3)NC(=O)[C@@H](N)CCC(=O)N(CCN)CCN)cccc21 [Compound 101, (S)-2-amino-N^5,N^5-bis(2-aminoethyl)-N^1-((R)-1-(1-hydroxy-3,3-dimethyl-1,3-dihydrobenzo[c][1,2]oxaborol-7-ylamino)-1-oxo-3-(4-(trifluoromethyl)phenyl)propan-2-yl)pentanediamide] | B (B = MPC8 of 2.5 μg/ml to less than 10 μg/mL.)
NCCN(CCN)C(=O)CC[C@H](N)C(=O)N[C@@H](Cc1ccc(C(F)(F)F)cc1)C(=O)Nc1ccccc1B(O)O [Compound 9, 2-((S)-2-((S)-2-amino-5-(bis(2-aminoethyl)amino)-5-oxopentanamido)-3-(4-(trifluoromethyl)phenyl)propanamido)phenylboronic acid] | C (C = MPC8 of 10 μg/mL or greater.)
NCCN(CCN)C(=O)CC[C@H](N)C(=O)N[C@H](CCc1ccc(C(F)(F)F)cc1)C(=O)Nc1cc(B(O)O)cc(C(F)(F)F)c1 [Compound 13, 3-((R)-2-((S)-2-amino-5-(bis(2-aminoethyl)amino)-5-oxopentanamido)-4-(4-(trifluoromethyl)phenyl)butanamido)-5-(trifluoromethyl)phenylboronic acid] | B (B = MPC8 of 2.5 μg/ml to less than 10 μg/mL.)
CC1(C)OB(O)c2ccc(NC(=O)[C@@H](CSc3ccc(C(F)(F)F)cc3)NC(=O)[C@@H](N)CCC(=O)NC(CN)CN)cc21 [Compound 98, (S)-2-amino-N^5-(1,3-diaminopropan-2-yl)-N^1-((S)-1-(1-hydroxy-3,3-dimethyl-1,3-dihydrobenzo[c][1,2]oxaborol-5-ylamino)-1-oxo-3-(4-(trifluoromethyl)phenylthio)propan-2-yl)pentanediamide] | B (B = MPC8 of 2.5 μg/ml to less than 10 μg/mL.)
NCCN(CCN)C(=O)CC[C@H](N)C(=O)N[C@H](Cc1ccc(C(F)(F)F)cc1)C(=O)Nc1ccccc1B(O)O [Compound 8, 2-((R)-2-((S)-2-amino-5-(bis(2-aminoethyl)amino)-5-oxopentanamido)-3-(4-(trifluoromethyl)phenyl)propanamido)phenylboronic acid] | C (C = MPC8 of 10 μg/mL or greater.)
NCCN(CCN)C(=O)CC[C@H](N)C(=O)N[C@H](CCC1CCCCC1)C(=O)Nc1cc(B(O)O)cc(C(F)(F)F)c1 [Compound 12, 3-((R)-2-((S)-2-amino-5-(bis(2-aminoethyl)amino)-5-oxopentanamido)-4-cyclohexylbutanamido)-5-(trifluoromethyl)phenylboronic acid] | A (A = MPC8 of less than 2.5 μg/mL.)
CC1(C)OB(O)c2cc(NC(=O)[C@@H](CCc3ccc(C(F)(F)F)cc3)NC(=O)[C@@H](N)CCC(=O)NCC(O)(CN)CN)ccc21 [Compound 27, (S)-2-amino-N5-(3-amino-2-(aminomethyl)-2-hydroxypropyl)-N1-((R)-1-(1-hydroxy-3,3-dimethyl-1,3-dihydrobenzo[c][1,2]oxaborol-6-ylamino)-1-oxo-4-(4-(trifluoromethyl)phenyl)butan-2-yl)pentanediamide] | B (B = MPC8 of 2.5 μg/ml to less than 10 μg/mL.)
CC1(C)OB(O)c2cc(NC[C@@H](Cc3ccc(C(F)(F)F)cc3)NC(=O)[C@@H](N)CCC(=O)N(CCN)CCN)ccc21 [Compound 108, (S)-2-amino-N^5,N^5-bis(2-aminoethyl)-N^1-((R)-1-(1-hydroxy-3,3-dimethyl-1,3-dihydrobenzo[c][1,2]oxaborol-6-ylamino)-3-(4-(trifluoromethyl)phenyl)propan-2-yl)pentanediamide] | A (A = MPC8 of less than 2.5 μg/mL.)
